Measured values from paper PMC6825270 (Proceedings of the National Academy of Sciences of the …, 2019).

Columns and labels:
[1] = biological target: human μ-opioid receptor (hMOPr) (human) (UniProt P35372); experiment: radioligand binding
[2] = biological target: MOPr (Mus musculus, UniProt P42866); assay type: cell-based; conditions: GRK2-positive cells, saturating concentrations
[3] = biological target: mouse MOPr (mMOPr) (Mus musculus, UniProt P42866); experiment: GGIRK activation in AtT20 cells expressing mMOPr, perforated patch; assay type: cell-based
[4] = biological target: human MOPr (hMOPr) (Homo sapiens, UniProt P35372); experiment: Inhibition of forskolin-stimulated cAMP formation in hMOPr HEK cells; assay type: cell-based; conditions: 10 µM
[5] = biological target: human κ-opioid receptor (hKOPr) (human) (UniProt P41145); experiment: radioligand binding
[6] = biological target: human δ-opioid receptor (hDOPr) (human) (UniProt P41143); experiment: radioligand binding

Sequence of human MOPr (hMOPr) (P35372 whole entry): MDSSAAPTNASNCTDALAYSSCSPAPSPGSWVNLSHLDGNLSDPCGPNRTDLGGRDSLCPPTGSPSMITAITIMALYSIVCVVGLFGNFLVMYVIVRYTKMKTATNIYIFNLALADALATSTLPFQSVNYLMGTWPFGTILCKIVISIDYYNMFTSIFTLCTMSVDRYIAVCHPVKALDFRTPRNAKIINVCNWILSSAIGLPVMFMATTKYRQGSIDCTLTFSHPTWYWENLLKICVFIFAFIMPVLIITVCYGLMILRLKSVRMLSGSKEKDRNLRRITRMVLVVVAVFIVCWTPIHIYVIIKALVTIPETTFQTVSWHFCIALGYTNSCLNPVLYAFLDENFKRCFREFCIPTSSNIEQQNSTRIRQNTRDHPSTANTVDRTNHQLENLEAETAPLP

| Molecule | Ki [1] | Inhibition of cAMP formation / MOPr activity, in words [4] | other results |
| --- | --- | --- | --- |
| bilaid A (FvVf-OH) (peptide) | 3.1 µM |  |  |
| COc1ccsc1CNCC[C@@]1(c2ccccn2)CCOC2(CCCC2)C1 [oliceridine] |  |  | MOPr internalization with overexpressed GRK2-YFP and β-arrestin 2-HA, in words [2]: clear internalization signals; GGIRK activation in AtT20 cells, in words [3]: significantly less efficaciously than either morphine or bilorphin |
| bilaid C (YvVf-OH) (peptide) | 0.21 µM |  |  |
| H-fVvF-NH2 [1f] |  | generally inactive |  |
| H-FVvf-NH2 [1g] |  | generally inactive |  |
| H-fVvF-OH [1b] |  | generally inactive |  |
| H-FVvf-OH [1c] |  | generally inactive |  |
| bilorphin ([Dmt]vVf-NH2) (peptide) |  |  | Ki [5]: 0.77 µM; Ki [6]: 0.19 µM |
| H-fvVF-OH [1d] |  | generally inactive |  |
| FVVF (D-Val at 2, D-Phe at 4; C-terminal amide) [C-terminally amidated bilaid A (1e)] | 0.75 µM |  |  |
